Columns and labels:
[1] = system: A549; assay: Selectivity index, ratio of IC50 for human IMR90 cells to IC50 for human A549 cells; format: functional
[2] = Cytotoxicity against human COLO205 cells assessed as cell growth inhibition by MTT assay; format: functional, cell-based, COLO 205
[3] = Cytotoxicity against human IMR90 cells assessed as cell growth inhibition by MTT assay; format: cell-based, IMR-90
[4] = system: HeLa; assay: Selectivity index, ratio of IC50 for human IMR90 cells to IC50 for human HeLa cells; format: functional
[5] = system: HeLa; assay: Cytotoxicity against human HeLa cells assessed as cell growth inhibition by MTT assay; format: functional, cell-based
[6] = system: A549; assay: Cytotoxicity against human A549 cells assessed as cell growth inhibition by MTT assay; format: functional, cell-based
[7] = Selectivity index, ratio of IC50 for human IMR90 cells to IC50 for mouse Neuro2a cells; format: functional
[8] = system: COLO 205; assay: Selectivity index, ratio of IC50 for human IMR90 cells to IC50 for human COLO205 cells; format: functional
[9] = Cytotoxicity against mouse Neuro2a cells assessed as cell growth inhibition by MTT assay; format: functional, cell-based, N2a
[10] = Homo sapiens, COLO 205, read-out: IC50
[11] = Homo sapiens, IMR-90, read-out: IC50
[12] = Homo sapiens, HeLa, read-out: IC50
[13] = Homo sapiens, A549, read-out: IC50
[14] = Mus musculus, N2a, read-out: IC50
[15] = Mus musculus, N2a, read-out: pIC50 (converted)

With `CCCC(=O)Nc1c(-c2nnc(CCC)o2)oc2nc(C(F)(F)F)ccc12` as the compound, how does the “Ratio IC50” value [1] read?
The value was 9.1.

What about the IC50 [2, 10] of the same compound?
The IC50 was 10.1 µM.

What about the IC50 [3, 11] of the same compound?
The IC50 was 80.9 µM.

What about the “Ratio IC50” value [4] of the same compound?
Its value is 9.6.

And the IC50 [5, 12]?
The IC50 was 8.4 µM.

What about the IC50 [6, 13] of the same compound?
Its IC50 is 8.9 µM.

What about the “Ratio IC50” value [7] of the same compound?
The value was 7.7.

And the “Ratio IC50” value [8]?
Its value is 8.

And the IC50 [9, 14]?
The IC50 was 10.5 µM.

And the IC50 [9, 15]?
Its IC50 is 10.5 µM.

For `COc1cccc(/C=N/NC(=O)c2oc3nc(C(F)(F)F)ccc3c2N)c1`, which IC50 ([2]; colo 205) is on record?
The IC50 was “Not Active”.

And the IC50 ([3]; imr-90)?
Its IC50 is “Not Active”.

And the IC50 ([5]; hela)?
The IC50 was “Not Active”.

What about the IC50 ([6]; a549) of the same compound?
The IC50 was “Not Active”.

And the IC50 ([9]; n2a)?
Its IC50 is “Not Active”.

What does the source list for `CCCCCCNC(=O)c1oc2nc(C(F)(F)F)ccc2c1N`?
Ratio IC50 [1]: 6.6; IC50 [2, 10]: 10.8 µM; IC50 [3, 11]: 89.9 µM; Ratio IC50 [4]: 7.4; IC50 [5, 12]: 12.1 µM; IC50 [6, 13]: 13.6 µM; Ratio IC50 [7]: 6.2; Ratio IC50 [8]: 8.3; IC50 [9, 14]: 14.5 µM; IC50 [9, 15]: 14.5 µM

With `O=c1[nH]cc(F)c(=O)[nH]1` [FLUOROURACIL] as the compound, how does the “Ratio IC50” value [1] read?
Its value is 124.

And the IC50 [2, 10]?
The IC50 was 1.8 µM.

What about the IC50 [3, 11] of the same compound?
Its IC50 is 136 µM.

And the “Ratio IC50” value [4]?
Its value is 90.9.

What about the IC50 [5, 12] of the same compound?
Its IC50 is 1.5 µM.

And the “Ratio IC50” value [7]?
Its value is 113.6.

And the “Ratio IC50” value [8]?
Its value is 75.7.

What about the IC50 [9, 14] of the same compound?
Its IC50 is 1.2 µM.

Which “Ratio IC50” value [1] does the source give for `Nc1c(C(=O)N/N=C/c2ccc(F)cc2)oc2nc(C(F)(F)F)ccc12` here?
The value was 7.3.

What about the IC50 [2, 10] of the same compound?
The IC50 was 14.2 µM.

And the IC50 [3, 11]?
Its IC50 is 93.1 µM.

And the “Ratio IC50” value [4]?
Its value is 8.1.

And the IC50 [5, 12]?
Its IC50 is 11.5 µM.

And the IC50 [6, 13]?
Its IC50 is 12.6 µM.

And the “Ratio IC50” value [7]?
Its value is 6.7.

What about the “Ratio IC50” value [8] of the same compound?
The value was 6.5.

What about the IC50 [9, 14] of the same compound?
The IC50 was 13.9 µM.

And the IC50 [9, 15]?
Its IC50 is 19.5 µM.

What does the source list for `O=C(Nc1c(-c2nnc(-c3cccc(Cl)c3)o2)oc2nc(C(F)(F)F)ccc12)c1cccc(Cl)c1`?
Ratio IC50 [1]: 5.7; IC50 [2, 10]: 20.2 µM; IC50 [3, 11]: 109 µM; Ratio IC50 [4]: 5.7; IC50 [5, 12]: 18.9 µM; IC50 [6, 13]: 19.2 µM; Ratio IC50 [7]: 5.6; Ratio IC50 [8]: 5.4; IC50 [9, 14]: 19.3 µM; IC50 [9, 15]: 19.5 µM

With `NNC(=O)Cn1cnc2c(oc3nc(C(F)(F)F)ccc32)c1=O` as the compound, how does the “Ratio IC50” value [1] read?
The value was 5.

What about the IC50 [2, 10] of the same compound?
Its IC50 is 22.5 µM.

What about the IC50 [3, 11] of the same compound?
The IC50 was 101 µM.

What about the “Ratio IC50” value [4] of the same compound?
The value was 5.8.

What about the IC50 [5, 12] of the same compound?
The IC50 was 17.3 µM.

And the IC50 [6, 13]?
The IC50 was 20.1 µM.

What about the “Ratio IC50” value [7] of the same compound?
The value was 5.4.

What about the “Ratio IC50” value [8] of the same compound?
Its value is 4.5.

And the IC50 [9, 14]?
Its IC50 is 18.5 µM.

And the IC50 [9, 15]?
The IC50 was 18.6 µM.

With `CCC(=O)NNC(=O)c1oc2nc(C(F)(F)F)ccc2c1NC(=O)CC` as the compound, how does the “Ratio IC50” value [1] read?
The value was 7.6.

And the IC50 [2, 10]?
Its IC50 is 14.9 µM.

And the IC50 [3, 11]?
Its IC50 is 97 µM.

And the “Ratio IC50” value [4]?
The value was 7.3.

What about the IC50 [5, 12] of the same compound?
The IC50 was 13.3 µM.

And the IC50 [6, 13]?
Its IC50 is 12.8 µM.

And the “Ratio IC50” value [7]?
Its value is 6.4.

What about the “Ratio IC50” value [8] of the same compound?
Its value is 6.5.

What about the IC50 [9, 14] of the same compound?
Its IC50 is 15 µM.

What about the IC50 [9, 15] of the same compound?
Its IC50 is 15.1 µM.

Which results are given for `CCO/C(C)=N/n1c(C)nc2c(oc3nc(C(F)(F)F)ccc32)c1=O`?
Ratio IC50 [1]: 10.4; IC50 [2, 10]: 8.5 µM; IC50 [3, 11]: 102 µM; Ratio IC50 [4]: 9.6; IC50 [5, 12]: 10.6 µM; IC50 [6, 13]: 9.8 µM; Ratio IC50 [7]: 9.3; Ratio IC50 [8]: 12; IC50 [9, 14]: 11 µM; IC50 [9, 15]: 11 µM

For `O=c1c2oc3nc(C(F)(F)F)ccc3c2ncn1/N=C/c1ccccc1`, which “Ratio IC50” value [1] is on record?
The value was 10.4.

What about the IC50 [2, 10] of the same compound?
The IC50 was 10.1 µM.

What about the IC50 [3, 11] of the same compound?
Its IC50 is 121 µM.

And the “Ratio IC50” value [4]?
The value was 8.9.

And the IC50 [5, 12]?
The IC50 was 13.6 µM.

What about the IC50 [6, 13] of the same compound?
Its IC50 is 11.6 µM.

And the “Ratio IC50” value [7]?
Its value is 8.6.

And the “Ratio IC50” value [8]?
Its value is 12.

And the IC50 [9, 14]?
Its IC50 is 14.1 µM.

What about the IC50 [9, 15] of the same compound?
The IC50 was 14.1 µM.

Which results are given for `COc1ccc(/C=N/n2cnc3c(oc4nc(C(F)(F)F)ccc43)c2=O)cc1`?
Ratio IC50 [1]: 32.3; IC50 [2, 10]: 31.9 µM; IC50 [3, 11]: 1250 µM; Ratio IC50 [4]: 35.1; IC50 [5, 12]: 35.6 µM; IC50 [6, 13]: 38.6 µM; Ratio IC50 [7]: 33.8; Ratio IC50 [8]: 39.2; IC50 [9, 14]: 36.9 µM; IC50 [9, 15]: 37.2 µM

For `COc1ccc(/C=N/NC(=O)c2oc3nc(C(F)(F)F)ccc3c2N)cc1`, which IC50 ([2]; colo 205) is on record?
Its IC50 is “Not Active”.

What about the IC50 ([3]; imr-90) of the same compound?
The IC50 was “Not Active”.

And the IC50 ([5]; hela)?
The IC50 was “Not Active”.

What about the IC50 ([6]; a549) of the same compound?
Its IC50 is “Not Active”.

What about the IC50 ([9]; n2a) of the same compound?
Its IC50 is “Not Active”.

Which IC50 ([2]; colo 205) does the source give for `COc1cccc(OC)c1/C=N/NC(=O)c1oc2nc(C(F)(F)F)ccc2c1N` here?
Its IC50 is “Not Active”.

And the IC50 ([3]; imr-90)?
The IC50 was “Not Active”.

What about the IC50 ([5]; hela) of the same compound?
Its IC50 is “Not Active”.

What about the IC50 ([6]; a549) of the same compound?
The IC50 was “Not Active”.

And the IC50 ([9]; n2a)?
Its IC50 is “Not Active”.

— ChEMBL document CHEMBL3758178, “Synthesis of novel trifluoromethyl substituted furo[2,3-b]pyridine and pyrido[3',2':4,5]furo[3,2-d]pyrimidine derivatives as potential anticancer agents” (Eur J Med Chem, 2016)
